# Results: US10197581B2, “Vitamin D assays” (Enzo Life Sciences, Inc., priority 2013, dated 2019)
# Where a name gives a salt, the structure may show the parent alone. Read-outs that look alike come from different tables or passages of the source.
# Experiments:
# [1] = molecular target: T1, vitamin D binding protein (DBP) (Homo sapiens, UniProt P02774); experiment: Screening of dissociation buffer components (release reagents) in the 25OHD ELISA; assay type: biochemical; settings: for release of 25OHD from DBP and maintaining 25OHD availability for antibody binding / tolerance in the assay: component of dissociation buffer; for effect towards dissociation of 25OHD from DBP: earlier experiments
# T1 sequence (P02774 17-474): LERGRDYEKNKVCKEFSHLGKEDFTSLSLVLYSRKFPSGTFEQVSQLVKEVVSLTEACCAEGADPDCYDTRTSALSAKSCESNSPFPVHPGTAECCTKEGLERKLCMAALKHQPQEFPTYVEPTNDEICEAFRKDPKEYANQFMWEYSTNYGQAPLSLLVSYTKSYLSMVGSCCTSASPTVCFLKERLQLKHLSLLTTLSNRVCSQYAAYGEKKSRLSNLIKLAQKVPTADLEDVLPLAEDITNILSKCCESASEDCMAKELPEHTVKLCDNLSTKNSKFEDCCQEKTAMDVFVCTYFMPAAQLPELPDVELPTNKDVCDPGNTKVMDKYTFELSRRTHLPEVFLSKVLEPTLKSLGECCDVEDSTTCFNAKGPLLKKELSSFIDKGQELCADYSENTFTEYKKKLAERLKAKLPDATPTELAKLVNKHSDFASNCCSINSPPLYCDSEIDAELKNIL
# Description: In order to optimize the ELISA 25OHD assay, components of the dissociation buffer, the assay buffer and the wash buffer, and conditions for performing various steps in the protocol were tested in the assay. Various reagents were tested alone or in combination for their effects on dissociation of 25OHD from DBP.
# In addition, various types and concentrations of buffer salts (e.g., Tris, MES, citrate) were used in the dissociation buffers, assay buffers and wash buffers. Dissociation and wash buffers having a pH from 4-8 were tested. Dissocation was performed at different temperatures (RT, 37° C., 65° C.) and in different incubation vessels (polypropylene or polystyrene) and the competitive ELISA was performed using various different 25OHD conjugates.
# [2] = assay type: physicochemical
# [3] = system: sheep monoclonal anti-25OHD antibody (Bioventix); experiment: Cross-reactivity of vitamin D metabolites in the optimized 25OHD competitive ELISA; assay type: binding; settings: for % cross-reactivity: determined at the OD corresponding to the ED50 of 25OHD3; for ED50: optimized 25OHD ELISA, metabolite serially diluted in Tris buffer
# Description: Ten vitamin D metabolites were tested for cross-reactivity in the optimized 25OHD ELISA assay described above. New concentrated stock solutions were prepared from dry chemicals for all metabolites. For cross-reactivity testing, each metabolite was prepared and serially diluted in a Tris buffer. Metabolites and the concentration ranges tested are in Table 3. The metabolite solutions were used as samples and mixed with dissociation buffer and the assay carried out as previously described.
# [4] = molecular target: T1, vitamin D binding protein (DBP); experiment: Release of bound 25OHD3 from DBP in serum samples at varied release reagent concentrations (ELISA); assay type: biochemical; parameters: from tissue; host or cells: human serum; settings: for percent inhibition by released 25OHD: vs controls with no 25OHD
# Description: Each buffer was diluted to provide dissociation buffers with multiple concentrations of a single release reagent.
# [5] = molecular target: T1, vitamin D binding protein (DBP); experiment: as above; assay type: biochemical; parameters: human serum containing 20 or 40 ng/mL 25OHD3 were treated with the various dissociation buffers; from tissue; host or cells: human serum; settings: major release reagents in combination
Compound,release of 25OHD from DBP and maintaining 25OHD availability for antibody binding [1],% cross-reactivity [3] [%],ED50 [3] [µg/mL],other results
N=C(N)N [guanidine HCl],did not aid in dissociating 25OHD from DBP,–,–,–
CCCCn1cc[n+](C)c1.F[B-](F)(F)F [1-butyl-3-methylimidazolium tetrafluoroborate],effective and generally compatible with the assay,–,–,–
CCCC[n+]1ccc(C)cc1.F[B-](F)(F)F,effective and generally compatible with the assay,–,–,time after manufacture until dissociation buffer became unreliable [2]: ≤ 7 days; pH of the dissociation buffer ([2]; after 1.5 days): 4.7; pH of the dissociation buffer ([2]; after 4 days): 4.07; pH of the dissociation buffer ([2]; after 7 day): 3.46; pH of the dissociation buffer ([2]; after 8 days): 2.79; pH of the dissociation buffer ([2]; after 9 days): 2.43; pH of the dissociation buffer ([2]; freshly made): 5.2
CO [methanol],ineffective release reagents at concentrations that were tolerable in the assay,–,–,–
O=C(O)CCP(CCC(=O)O)CCC(=O)O [TCEP],did not aid in dissociating 25OHD from DBP,–,–,–
"CCCCCCCCCCCCOS(=O)(=O)[O-].[Na+] [SDS, sodium dodecyl sulfate]",did not aid in dissociating 25OHD from DBP,–,–,–
"C=C1CCC(O)C/C1=C\C=C1\CCCC2(C)C1CCC2C(C)CCC(O)C(C)(C)O (centres unmarked) [24,25(OH)2VitaminD3]",–,1.25,0.14,"detection by the anti-25OHD antibody ([3]; 25OHD assay): neither the parent vitamin compounds nor the 24,25(OH)2VitaminD3 metabolite was detected to any appreciable degree"
C=C1CC[C@@H](O)C/C1=C/C=C1\CCC[C@]2(C)[C@@H]([C@H](C)CCCC(C)(C)O)CC[C@@H]12 [3-epi-25(OH)VitaminD3],–,50.87,0.00344,% cross-reactivity ([3]; listed as 3-epimer of 25(OH)VitaminD3): 51%
1-butyl-3-methylimidazolium octylsulfate,effective and generally compatible with the assay,–,–,–
"C=C1/C(=C\C=C2/CCC[C@]3(C)[C@@H]([C@H](C)CCCC(C)(C)O)CC[C@@H]23)C[C@@H](O)C[C@@H]1O [1,25(OH)2VitaminD3]",–,27.9,0.00627,"% cross-reactivity ([3]; listed as 1,25(OH)2D3): 28%"
O[C@@H](CS)[C@@H](O)CS [DTT],did not aid in dissociating 25OHD from DBP,–,–,–
C=C1/C(=C\C=C2/CCC[C@]3(C)[C@@H]([C@H](C)/C=C/[C@H](C)C(C)C)CC[C@@H]23)C[C@@H](O)C[C@@H]1O [1α(OH)VitaminD2],–,<0.01,1.43,–
casein,–,–,–,effect on absorbance signal and dynamic signal range ([1]; protein at or above 0.5% in the assay): negatively impacted absorbance signal and dynamic signal range
C=C1CC[C@H](O)C/C1=C/C=C1\CCC[C@]2(C)[C@@H]([C@H](C)CCCC(C)(C)O)CC[C@@H]12 [25(OH)VitaminD3],–,100,0.00175,–
CCO [ethanol],ineffective release reagents at concentrations that were tolerable in the assay,–,–,–
C=C1CC[C@H](O)C/C1=C/C=C1\CCC[C@]2(C)[C@@H]([C@H](C)CCCC(C)C)CC[C@@H]12 [Vitamin D3],–,0.01,23.5,–

Compound,release of 25OHD from DBP and maintaining 25OHD availability for antibody binding [1],% cross-reactivity [3] [%],ED50 [3] [µg/mL],other results
"CCCCCCCCCCCC(=O)OCCOCCOCCOCCOCCOCCOCCOCCOCCOCCOCCOCCOCCOCCOCCOCCOCCOCCOCCOCCOCC(OCCOCCOCCOCCOCCOCCOCCOCCOCCOCCOCCOCCOCCOCCOCCOCCOCCOCCOCCOCCO)C1OCC(OCCOCCOCCOCCOCCOCCOCCOCCOCCOCCOCCOCCOCCOCCOCCOCCOCCOCCOCCOCCO)C1OCCOCCOCCOCCOCCOCCOCCOCCOCCOCCOCCOCCOCCOCCOCCOCCOCCOCCOCCOCCO (centres unmarked) [Tween-20, Polysorbate 20]",did not aid in dissociating 25OHD from DBP,–,–,–
CCCCCCCCCCCCCC[N+](C)(C)CCCS(=O)(=O)[O-] [Zwittergent 3-14],–,–,–,tolerance in the assay [1]: not tolerated in the assay
O=C(O)CN(CCN(CC(=O)O)CC(=O)O)CC(=O)O [EDTA],did not aid in dissociating 25OHD from DBP,–,–,–
C[C@H](CCC(=O)NCCC[N+](C)(C)CCCS(=O)(=O)[O-])[C@H]1CC[C@H]2[C@@H]3[C@H](O)C[C@@H]4C[C@H](O)CC[C@]4(C)[C@H]3C[C@H](O)[C@]12C [CHAPS],did not aid in dissociating 25OHD from DBP,–,–,–
NP-40,–,–,–,tolerance in the assay [1]: not tolerated in the assay
"CCCCC/C=C\C/C=C\C/C=C\C/C=C\CCCC(=O)O [Arachidonic acid, arachidonic acid]",did not aid in dissociating 25OHD from DBP,–,–,–
C=C1/C(=C\C=C2/CCC[C@]3(C)[C@@H]([C@H](C)CCCC(C)C)CC[C@@H]23)C[C@@H](O)C[C@@H]1O [1α(OH)VitaminD3],–,0.04,4.03,–
CCCC[n+]1ccc(C)cc1.[Cl-],effective and generally compatible with the assay,–,–,"stability of dissociation buffer [2]: stable and could be stored at room temperature for weeks with no change in efficacy in the assay; percent inhibition by released 25OHD ([4]; 20 ng/mL 25OHD3 serum sample, high end of 6-14% reagent range): 25%; percent inhibition by released 25OHD ([4]; 20 ng/mL 25OHD3 serum sample, low end of 6-14% reagent range): 12%; percent inhibition by released 25OHD ([4]; 40 ng/mL 25OHD3 serum sample, high end of 6-14% reagent range): 34%; percent inhibition by released 25OHD ([4]; 40 ng/mL 25OHD3 serum sample, low end of 6-14% reagent range): 16%; best percentage of individual release reagent (greatest gains in 25OHD release) ([4]; single release reagent in dissociation buffer): 14%; optimal concentration for dissociation buffer formulation [5]: about 10%"
"CC#N [Acetonitrile, acetonitrile]",ineffective release reagents at concentrations that were tolerable in the assay,–,–,–
"C=C1/C(=C\C=C2/CCC[C@]3(C)[C@@H]([C@H](C)/C=C/[C@H](C)C(C)(C)O)CC[C@@H]23)C[C@@H](O)C[C@@H]1O [1,25(OH)2VitaminD2]",–,94.1,0.00186,"% cross-reactivity ([3]; listed as 1,25(OH)2D2): 94%"
C=C1CC[C@H](O)C/C1=C/C=C1\CCC[C@]2(C)[C@@H]([C@H](C)/C=C/[C@H](C)C(C)C)CC[C@@H]12 [Vitamin D2],–,0.11,1.643,–
C=C1CC[C@H](O)C/C1=C/C=C1\CCC[C@]2(C)[C@@H]([C@H](C)/C=C/[C@H](C)C(C)(C)O)CC[C@@H]12 [25(OH)VitaminD2],–,87.94,0.00199,% cross-reactivity ([3]; listed as 25OHD2): 88%
methyl β-cyclodextrin,effective and generally compatible with the assay,–,–,preventing 25OHD re-uptake by DBP or binding to other cellular proteins/lipids [1]: appeared to be effective; effect towards dissociation of 25OHD from DBP [1]: did not show a large effect
Triton X-100,–,–,–,tolerance in the assay [1]: not tolerated in the assay
O=C([O-])c1ccccc1O.[Na+] [sodium salicylate],effective and generally compatible with the assay,–,–,preventing 25OHD re-uptake by DBP or binding to other cellular proteins/lipids [1]: appeared to be effective; effect towards dissociation of 25OHD from DBP [1]: did not show a large effect
CC(C)O [2-isopropanol],ineffective release reagents at concentrations that were tolerable in the assay,–,–,–
